Test [1] has as its target T1, Polycomb protein EED (Homo sapiens, UniProt O75530). The test is described as follows: Binding affinity to his-tagged EED (76 to 441 residues) (unknown origin) expressed in Escherichia coli BL21 (DE3) using H3K27me3 as substrate assessed as dissociation constant.
Test [2] addresses T1, Polycomb protein EED. The test is described as follows: Binding affinity to his-tagged EED (76 to 441 residues) (unknown origin) expressed in Escherichia coli BL21 (DE3) assessed as dissociation constant by SPR analysis.

What is called Kd is the constant that tells how readily two partners part at equilibrium.

Each structure is given as a SMILES string.

T1 sequence (O75530 whole entry, the tested form may be a part): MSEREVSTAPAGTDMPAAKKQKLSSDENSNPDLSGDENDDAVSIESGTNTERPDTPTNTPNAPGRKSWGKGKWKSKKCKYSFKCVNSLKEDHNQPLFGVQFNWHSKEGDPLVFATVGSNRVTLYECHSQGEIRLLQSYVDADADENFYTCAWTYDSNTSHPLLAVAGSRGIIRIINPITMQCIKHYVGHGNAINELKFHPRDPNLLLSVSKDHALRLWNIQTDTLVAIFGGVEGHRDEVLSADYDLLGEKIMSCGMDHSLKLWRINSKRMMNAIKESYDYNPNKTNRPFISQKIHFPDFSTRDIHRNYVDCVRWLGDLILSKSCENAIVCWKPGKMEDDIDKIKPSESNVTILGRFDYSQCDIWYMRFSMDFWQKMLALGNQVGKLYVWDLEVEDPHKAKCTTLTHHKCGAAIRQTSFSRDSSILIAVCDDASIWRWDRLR

In the case of `Clc1ccc(C2(C3=Cc4ccccc4C4=NCCN34)CC2)cc1`, in test [1], the Kd worked out at 25 µM.
As for `Fc1ccccc1C1=Cc2ccccc2C2=NCCN12`, the Kd in test [2] stood at 13.5 µM.
As to `NC1=NCC(c2cccc(Oc3ccc(Cl)cc3)c2)C1` (centres undefined), the Kd in test [2] is about 360 µM.
As to `CC(C)(Cc1ccccc1)C1=Cc2ccccc2C2=NCCN12`, the Kd in test [1] was determined as 21 µM.

These data come from ChEMBL document CHEMBL5360606, “Discovery of New Binders for DCAF1, an Emerging Ligase Target in the Targeted Protein Degradation Field” (ACS Med Chem Lett, 2023).
